Assay results from ChEMBL document CHEMBL5329160, “Design, synthesis, and mechanistic study of 2-piperazineone-bearing peptidomimetics as novel HIV capsid modulators” (RSC Med Chem, 2023).

Key:
[1] = system: Human immunodeficiency virus 1; assay: Antiviral activity against HIV-1 IIIB infected in MT4 cells assessed as protection against virus induced cytotoxicity incubated for 5 days by MTT assay; assay type: functional, organism-based; conditions: Human immunodeficiency virus 1, IIIB, MT4, 120 h
[2] = system: Human immunodeficiency virus 2; assay: Antiviral activity against HIV-2 ROD infected in MT4 cells assessed as protection against virus induced cytotoxicity and measured after 5 days by MTT spectrophotometric assay; assay type: functional, organism-based; conditions: Human immunodeficiency virus 2, ROD, MT4, 120 h
[3] = Cytotoxicity against human MT4 cells assessed as reduction in cell viability after 5 days by MTT assay; assay type: toxicity, cell-based; conditions: time 5 day
[4] = Selectivity index, ratio of CC50 for human MT4 cells to EC50 for HIV-1 IIIB infected in human MT4 cells; assay type: toxicity, cell-based; conditions: read-out: Ratio CC50/EC50
[5] = Selectivity index, ratio of CC50 for human MT4 cells to EC50 for HIV-2 ROD infected in human MT4 cells; assay type: toxicity, cell-based; conditions: read-out: Ratio CC50/EC50

Row | Structure (SMILES) | EC50 [1] | EC50 [2] | CC50 at 120 h [3] | selectivity ratio [4] | selectivity ratio [5]
1 | COc1ccc(N(C)C(=O)[C@H](Cc2cc(F)cc(F)c2)NC(=O)CN2CCN(C(=O)c3ccccc3F)CC2=O)cc1 | 22 µM | 5.3 µM | 140 µM | 6.4 | 26
2 | COc1ccc(N(C)C(=O)[C@H](Cc2ccccc2)NC(=O)CN2CCN(C(=O)c3cccc(N)c3)CC2=O)cc1 | ≥ 200 µM | 27 µM | > 230 µM | ≥ 1 | > 8.5
3 | COc1ccc(N(C)C(=O)[C@H](Cc2ccccc2)NC(=O)CN2CCN(C(=O)c3ccc(F)cc3)CC2=O)cc1 | > 77 µM | 11 µM | 77 µM | < 1 | 7
4 | COc1ccc(N(C)C(=O)[C@H](Cc2ccccc2)NC(=O)CN2CCN(C(=O)c3cccc([N+](=O)[O-])c3)CC2=O)cc1 | > 24 µM | > 24 µM | 24 µM | < 1 | < 1
5 | COc1ccc(N(C)C(=O)[C@H](Cc2cc(F)cc(F)c2)NC(=O)CN2CCN(C(=O)c3cccc([N+](=O)[O-])c3)CC2=O)cc1 | 34 µM | > 47 µM | 47 µM | 1.4 | < 1
6 | COc1ccc(C(=O)N2CCN(CC(=O)N[C@@H](Cc3ccccc3)C(=O)N(C)c3ccc(OC)cc3)C(=O)C2)cc1 | 26 µM | 21 µM | 110 µM | 4.2 | 5.2
7 | COc1ccc(N(C)C(=O)[C@H](Cc2ccccc2)NC(=O)CN2CCN(C(=O)c3ccccc3[N+](=O)[O-])CC2=O)cc1 | 22 µM | 2.5 µM | 180 µM | 8.2 | 72
8 | COc1ccc(N(C)C(=O)[C@H](Cc2cc(F)cc(F)c2)NC(=O)CN2CCN(C(=O)c3ccc(N)cc3)CC2=O)cc1 | 18 µM | 32 µM | > 220 µM | > 12 | > 6.9
9 | COc1ccc(N(C)C(=O)[C@H](Cc2ccccc2)NC(=O)CN2CCN(C(=O)c3ccc(Br)cc3)CC2=O)cc1 | > 11 µM | > 11 µM | 11 µM | < 1 | < 1
10 | COc1ccc(N(C)C(=O)[C@H](Cc2cc(F)cc(F)c2)NC(=O)CN2CCN(C(=O)c3cccc(F)c3)CC2=O)cc1 | 25 µM | 13 µM | 99 µM | 4 | 7.6
11 | COc1ccc(C(=O)N2CCN(CC(=O)N[C@@H](Cc3cc(F)cc(F)c3)C(=O)N(C)c3ccc(OC)cc3)C(=O)C2)cc1 | 24 µM | 31 µM | 96 µM | 4 | 3.1
12 | COC(=O)c1ccc(C(=O)N2CCN(CC(=O)N[C@@H](Cc3cc(F)cc(F)c3)C(=O)N(C)c3ccc(OC)cc3)C(=O)C2)cc1 | 18 µM | 26 µM | 120 µM | 6.7 | 4.6
13 | COc1ccc(N(C)C(=O)[C@H](Cc2ccccc2)NC(=O)CN2CCN(C(=O)c3ccccc3N)CC2=O)cc1 | 23 µM | 5.4 µM | 160 µM | 7 | 30
14 | COc1ccc(N(C)C(=O)[C@H](Cc2ccccc2)NC(=O)CN2CCN(C(=O)c3ccccc3F)CC2=O)cc1 | 24 µM | 7.8 µM | 140 µM | 5.8 | 18
15 | COC(=O)c1ccc(C(=O)N2CCN(CC(=O)N[C@@H](Cc3ccccc3)C(=O)N(C)c3ccc(OC)cc3)C(=O)C2)cc1 | > 190 µM | 24 µM | 200 µM | < 1 | 8.3
16 | COc1ccc(N(C)C(=O)[C@H](Cc2cc(F)cc(F)c2)NC(=O)CN2CCN(C(=O)c3cccc(C(F)(F)F)c3)CC2=O)cc1 | > 3.7 µM | > 3.7 µM | 3.7 µM | < 1 | < 1

Row | Structure (SMILES) | EC50 [1] | EC50 [2] | CC50 at 120 h [3] | selectivity ratio [4] | selectivity ratio [5]
17 | COc1ccc(N(C)C(=O)[C@H](Cc2ccccc2)NC(=O)CN2CCN(C(=O)c3ccc(N)cc3)CC2=O)cc1 | 21 µM | 28 µM | > 230 µM | > 11 | > 8.2
18 | COc1ccc(N(C)C(=O)[C@H](Cc2ccccc2)NC(=O)CN2CCN(C(=O)c3cccc(F)c3)CC2=O)cc1 | 23 µM | 4.6 µM | > 230 µM | > 10 | > 50
19 | COc1ccc(N(C)C(=O)[C@H](Cc2ccccc2)NC(=O)CN2CCN(C(=O)c3ccc(C)cc3)CC2=O)cc1 | 33 µM | 9.2 µM | 64 µM | 1.9 | 7
20 | COc1ccc(N(C)C(=O)[C@H](Cc2cc(F)cc(F)c2)NC(=O)CN2CCN(C(=O)c3ccc([N+](=O)[O-])cc3)CC2=O)cc1 | > 18 µM | > 18 µM | 18 µM | < 1 | < 1
21 | COc1ccc(N(C)C(=O)[C@H](Cc2cc(F)cc(F)c2)NC(=O)CN2CCN(C(=O)c3ccc(Cl)cc3)CC2=O)cc1 | > 19 µM | > 19 µM | 19 µM | < 1 | < 1
22 | COc1ccc(N(C)C(=O)[C@H](Cc2ccccc2)NC(=O)CN2CCN(C(=O)c3ccc(Cl)cc3)CC2=O)cc1 | > 8.9 µM | > 9 µM | 9 µM | < 1 | < 1
23 | COc1ccc(N(C)C(=O)[C@H](Cc2ccccc2)NC(=O)CN2CCN(C(=O)c3ccccc3)CC2=O)cc1 | 28 µM | 3.6 µM | > 240 µM | > 8.6 | > 67
24 | COc1ccc(N(C)C(=O)[C@H](Cc2cc(F)cc(F)c2)NC(=O)CN2CCN(C(=O)c3ccc(Br)cc3)CC2=O)cc1 | > 19 µM | > 19 µM | 19 µM | < 1 | < 1
25 | COc1ccc(N(C)C(=O)[C@H](Cc2cc(F)cc(F)c2)NC(=O)CN2CCN(C(=O)c3ccc(C(F)(F)F)cc3)CC2=O)cc1 | > 18 µM | > 18 µM | 18 µM | < 1 | < 1
26 | COc1ccc(N(C)C(=O)[C@H](Cc2ccccc2)NC(=O)CN2CCN(C(=O)c3ccc(C(F)(F)F)cc3)CC2=O)cc1 | ≥ 37 µM | ≥ 41 µM | 42 µM | – | –
27 | COc1ccc(N(C)C(=O)[C@H](Cc2cc(F)cc(F)c2)NC(=O)CN2CCN(C(=O)c3ccccc3)CC2=O)cc1 | 25 µM | 12 µM | 110 µM | 4.4 | –
28 | COc1ccc(N(C)C(=O)[C@H](Cc2ccccc2)NC(=O)CN2CCN(C(=O)c3ccc([N+](=O)[O-])cc3)CC2=O)cc1 | > 16 µM | > 16 µM | 16 µM | < 1 | < 1
29 | COc1ccc(N(C)C(=O)[C@H](Cc2cc(F)cc(F)c2)NC(=O)CN2CCN(C(=O)c3ccc(F)cc3)CC2=O)cc1 | 20 µM | 21 µM | 77 µM | 3.8 | 3.7
30 | COc1ccc(N(C)C(=O)[C@H](Cc2cc(F)cc(F)c2)NC(=O)CN2CCN(C(=O)c3ccccc3N)CC2=O)cc1 | 18 µM | 8.6 µM | 160 µM | 8.9 | 19
31 | COc1ccc(N(C)C(=O)[C@H](Cc2cc(F)cc(F)c2)NC(=O)CN2CCN(C(=O)c3cccc(N)c3)CC2=O)cc1 | 23 µM | 16 µM | > 220 µM | > 10 | > 14
